Assays:
[1] = tested on: Klebsiella pneumoniae PCI602; assay: Antibacterial MIC, standard serial dilution; type: cell-based; conditions: nutrient agar, 37° C., 17 hours, as free base
[2] = tested on: Providencia sp. Pv16; assay: Antibacterial MIC, standard serial dilution; type: cell-based; conditions: nutrient agar, 37° C., 17 hours, as free base
[3] = tested on: Escherichia coli NIHJ; assay: Antibacterial MIC, standard serial dilution; type: cell-based; conditions: nutrient agar, 37° C., 17 hours, as free base
[4] = tested on: Pseudomonas aeruginosa B-13; assay: Antibacterial MIC, standard serial dilution; type: cell-based; conditions: nutrient agar, 37° C., 17 hours, as free base
[5] = tested on: Escherichia coli K-12 ML1410 R81; assay: Antibacterial MIC, standard serial dilution; type: cell-based; conditions: nutrient agar, 37° C., 17 hours, as free base
[6] = tested on: Pseudomonas maltophilia GN 907; assay: Antibacterial MIC, standard serial dilution; type: cell-based; conditions: nutrient agar, 37° C., 17 hours, as free base
[7] = tested on: Bacillus subtilis PCI 219; assay: Antibacterial MIC, standard serial dilution; type: cell-based; conditions: nutrient agar, 37° C., 17 hours, as free base
[8] = tested on: Pseudomonas aeruginosa 99; assay: Antibacterial MIC, standard serial dilution; type: cell-based; conditions: nutrient agar, 37° C., 17 hours, as free base
[9] = tested on: Salmonella typhi T-63; assay: Antibacterial MIC, standard serial dilution; type: cell-based; conditions: nutrient agar, 37° C., 17 hours, as free base
[10] = tested on: Escherichia coli K-12 R5; assay: Antibacterial MIC, standard serial dilution; type: cell-based; conditions: nutrient agar, 37° C., 17 hours, as free base
[11] = tested on: Pseudomonas aeruginosa ROS 134/PU21; assay: Antibacterial MIC, standard serial dilution; type: cell-based; conditions: nutrient agar, 37° C., 17 hours, as free base
[12] = tested on: Proteus vulgaris 0X19; assay: Antibacterial MIC, standard serial dilution; type: cell-based; conditions: nutrient agar, 37° C., 17 hours, as free base
[13] = tested on: Bacillus cereus ATCC 10702; assay: Antibacterial MIC, standard serial dilution; type: cell-based; conditions: nutrient agar, 37° C., 17 hours, as free base
[14] = tested on: Escherichia coli W677; assay: Antibacterial MIC, standard serial dilution; type: cell-based; conditions: nutrient agar, 37° C., 17 hours, as free base
[15] = tested on: Pseudomonas aeruginosa K-Ps 102; assay: Antibacterial MIC, standard serial dilution; type: cell-based; conditions: nutrient agar, 37° C., 17 hours, as free base
[16] = tested on: Escherichia coli K-12 LA290 R64; assay: Antibacterial MIC, standard serial dilution; type: cell-based; conditions: nutrient agar, 37° C., 17 hours, as free base
[17] = tested on: Escherichia coli K-12; assay: Antibacterial MIC, standard serial dilution; type: cell-based; conditions: nutrient agar, 37° C., 17 hours, as free base
[18] = tested on: Escherichia coli K-12 ML1630; assay: Antibacterial MIC, standard serial dilution; type: cell-based; conditions: nutrient agar, 37° C., 17 hours, as free base
[19] = tested on: Pseudomonas aeruginosa PST1; assay: Antibacterial MIC, standard serial dilution; type: cell-based; conditions: nutrient agar, 37° C., 17 hours, as free base
[20] = tested on: Escherichia coli K-12 C600 R135; assay: Antibacterial MIC, standard serial dilution; type: cell-based; conditions: nutrient agar, 37° C., 17 hours, as free base
[21] = tested on: Serratia sp. 4; assay: Antibacterial MIC, standard serial dilution; type: cell-based; conditions: nutrient agar, 37° C., 17 hours, as free base
[22] = tested on: Staphylococcus epidermidis 109; assay: Antibacterial MIC, standard serial dilution; type: cell-based; conditions: nutrient agar, 37° C., 17 hours, as free base
[23] = tested on: Escherichia coli K-12 LA290 R55; assay: Antibacterial MIC, standard serial dilution; type: cell-based; conditions: nutrient agar, 37° C., 17 hours, as free base
[24] = tested on: Serratia marcescens; assay: Antibacterial MIC, standard serial dilution; type: cell-based; conditions: nutrient agar, 37° C., 17 hours, as free base
[25] = tested on: Providencia sp. 2991; assay: Antibacterial MIC, standard serial dilution; type: cell-based; conditions: nutrient agar, 37° C., 17 hours, as free base
[26] = tested on: Pseudomonas aeruginosa A3; assay: Antibacterial MIC, standard serial dilution; type: cell-based; conditions: nutrient agar, 37° C., 17 hours, as free base
[27] = tested on: Micrococcus flavus FDA 16; assay: Antibacterial MIC, standard serial dilution; type: cell-based; conditions: nutrient agar, 37° C., 17 hours, as free base
[28] = tested on: Klebsiella pneumoniae 22#3038; assay: Antibacterial MIC, standard serial dilution; type: cell-based; conditions: nutrient agar, 37° C., 17 hours, as free base
[29] = tested on: Pseudomonas aeruginosa GN315; assay: Antibacterial MIC, standard serial dilution; type: cell-based; conditions: nutrient agar, 37° C., 17 hours, as free base
[30] = tested on: Serratia sp. SOU; assay: Antibacterial MIC, standard serial dilution; type: cell-based; conditions: nutrient agar, 37° C., 17 hours, as free base
[31] = tested on: Pseudomonas aeruginosa TI-13; assay: Antibacterial MIC, standard serial dilution; type: cell-based; conditions: nutrient agar, 37° C., 17 hours, as free base
[32] = tested on: Pseudomonas aeruginosa No. 12; assay: Antibacterial MIC, standard serial dilution; type: cell-based; conditions: nutrient agar, 37° C., 17 hours, as free base
[33] = tested on: Corynebacterium bovis 1810; assay: Antibacterial MIC, standard serial dilution; type: cell-based; conditions: nutrient agar, 37° C., 17 hours, as free base
[34] = tested on: Shigella dysenteriae JS11910; assay: Antibacterial MIC, standard serial dilution; type: cell-based; conditions: nutrient agar, 37° C., 17 hours, as free base
[35] = tested on: Staphylococcus aureus Ap01; assay: Antibacterial MIC, standard serial dilution; type: cell-based; conditions: nutrient agar, 37° C., 17 hours, as free base
[36] = tested on: Bacillus anthracis; type: cell-based; conditions: nutrient agar, 37° C., 17 hours, as free base
[37] = tested on: Pseudomonas aeruginosa H9; assay: Antibacterial MIC, standard serial dilution; type: cell-based; conditions: nutrient agar, 37° C., 17 hours, as free base
[38] = tested on: Staphylococcus aureus FDA 209P; assay: Antibacterial MIC, standard serial dilution; type: cell-based; conditions: nutrient agar, 37° C., 17 hours, as free base
[39] = tested on: Bacillus subtilis NRRL B-558; assay: Antibacterial MIC, standard serial dilution; type: cell-based; conditions: nutrient agar, 37° C., 17 hours, as free base
[40] = tested on: Sarcina lutea PCI 1001; assay: Antibacterial MIC, standard serial dilution; type: cell-based; conditions: nutrient agar, 37° C., 17 hours, as free base
[41] = tested on: Escherichia coli JR66/W677; assay: Antibacterial MIC, standard serial dilution; type: cell-based; conditions: nutrient agar, 37° C., 17 hours, as free base
[42] = tested on: Escherichia coli JR225; assay: Antibacterial MIC, standard serial dilution; type: cell-based; conditions: nutrient agar, 37° C., 17 hours, as free base
[43] = tested on: mice; assay: Acute toxicity, intravenous administration in mice; type: in vivo
[44] = tested on: Escherichia coli K-12 ML1410; assay: Antibacterial MIC, standard serial dilution; type: cell-based; conditions: nutrient agar, 37° C., 17 hours, as free base
[45] = tested on: Staphylococcus aureus Smith; assay: Antibacterial MIC, standard serial dilution; type: cell-based; conditions: nutrient agar, 37° C., 17 hours, as free base
[46] = tested on: Proteus rettgeri GN311; assay: Antibacterial MIC, standard serial dilution; type: cell-based; conditions: nutrient agar, 37° C., 17 hours, as free base
[47] = tested on: Escherichia coli K-12 J5R11-2; assay: Antibacterial MIC, standard serial dilution; type: cell-based; conditions: nutrient agar, 37° C., 17 hours, as free base
[48] = tested on: Escherichia coli K-12 ML1629; assay: Antibacterial MIC, standard serial dilution; type: cell-based; conditions: nutrient agar, 37° C., 17 hours, as free base
[49] = tested on: Mycobacterium smegmatis ATCC 607; assay: Antibacterial MIC, standard serial dilution; type: cell-based; conditions: nutrient agar, 37° C., 17 hours, as free base
[50] = tested on: Escherichia coli K-12 R388; assay: Antibacterial MIC, standard serial dilution; type: cell-based; conditions: nutrient agar, 37° C., 17 hours, as free base
[51] = tested on: Pseudomonas aeruginosa H11; assay: Antibacterial MIC, standard serial dilution; type: cell-based; conditions: nutrient agar, 37° C., 17 hours, as free base
[52] = tested on: Escherichia coli K-12 LA290 R56; assay: Antibacterial MIC, standard serial dilution; type: cell-based; conditions: nutrient agar, 37° C., 17 hours, as free base
[53] = tested on: Proteus rettgeri GN466; assay: Antibacterial MIC, standard serial dilution; type: cell-based; conditions: nutrient agar, 37° C., 17 hours, as free base
[54] = tested on: Salmonella enteritidis 1891; assay: Antibacterial MIC, standard serial dilution; type: cell-based; conditions: nutrient agar, 37° C., 17 hours, as free base
[55] = tested on: Pseudomonas aeruginosa 21-75; assay: Antibacterial MIC, standard serial dilution; type: cell-based; conditions: nutrient agar, 37° C., 17 hours, as free base

Compound `CNCC1CCC(N)C(OC2C(N)CCC(N(C)C(=O)CNC=N)C2O)O1.O.O.O.O.O=S(=O)(O)O.O=S(=O)(O)O` (centres unmarked) [DBF, 3-demethoxy-2"-N-formimidoylistamycin B] has an MIC [1] of 0.78 µg/mL, an MIC [2] of 0.78 µg/mL and an MIC [3] of 0.20 µg/mL. For the same compound, the MIC [4] was > 100 µg/mL, the MIC [5] was 0.39 µg/mL and the MIC [6] was > 100 µg/mL. For the same compound, the MIC [7] was 0.20 µg/mL, the MIC [8] was > 100 µg/mL and the MIC [9] was 0.39 µg/mL. The MIC [10] was 0.78 µg/mL, the MIC [11] was 100 µg/mL and the MIC [12] was < 0.20 µg/mL. It also gave an MIC [13] of 1.56 µg/mL, an MIC [14] of 0.39 µg/mL and an MIC [15] of 25 µg/mL. For the same compound, the MIC [16] was 0.78 µg/mL, the MIC [17] was 0.39 µg/mL and the MIC [18] was 1.56 µg/mL. The MIC [19] was 25 µg/mL, the MIC [20] was 6.25 µg/mL and the MIC [21] was 12.5 µg/mL. The MIC [22] was 0.20 µg/mL, the MIC [23] was 0.78 µg/mL and the MIC [24] was 0.78 µg/mL. The MIC [25] was 1.56 µg/mL, the MIC [26] was 0.39 µg/mL and the MIC [27] was 0.39 µg/mL. It also gave an MIC [28] of 1.56 µg/mL, an MIC [29] of 50 µg/mL and an MIC [30] of 12.5 µg/mL. For the same compound, the MIC [31] was 12.5 µg/mL, the MIC [32] was 25 µg/mL and the MIC [33] was < 0.20 µg/mL. The MIC [34] was 1.56 µg/mL, the MIC [35] was 0.39 µg/mL and the MIC [36] was 0.39 µg/mL. For the same compound, the MIC [37] was 25 µg/mL, the MIC [38] was 0.39 µg/mL and the MIC [39] was < 0.20 µg/mL. It also gave an MIC [40] of 0.39 µg/mL, an MIC [41] of 0.39 µg/mL and an MIC [42] of 0.39 µg/mL. The acute toxicity ([43]; mice, intravenous, in words) was “low toxicity”, the “tolerated dose (all treated mice)” value ([43]; mouse, in vivo, iv, 336 h) was 100 mg/kg and the MIC [44] was 1.56 µg/mL. The MIC [45] was < 0.20 µg/mL, the MIC [46] was 0.39 µg/mL and the MIC [47] was 0.78 µg/mL. For the same compound, the MIC [48] was 0.39 µg/mL, the MIC [49] was 0.39 µg/mL and the MIC [50] was 0.39 µg/mL. For the same compound, the MIC [51] was 50 µg/mL, the MIC [52] was 0.39 µg/mL and the MIC [53] was < 0.20 µg/mL. It also gave an MIC [54] of 1.56 µg/mL and an MIC [55] of 50 µg/mL.

Reference: patent publication US4479943A, “3-Demethoxyistamycin B, the 2"-N-formimidoyl derivative thereof and pharmaceutical composition containing same” (Zaidan Hojin Biseibutsu Kagaku Kenkyu Kai, priority 1982, dated 1984)
